How the values were obtained:
[1] = system: male ICR-mice; assay: Potentiation of sodium pentobarbital sleeping time test; assay type: in vivo
[2] = bioassay-guided fractionation, sedative and hypnotic effects; settings: compound isolated from Gastrodia elata and Gymnadenia conopsea, result in words
[3] = system: PC12 cell; settings: result in words; cited from earlier work
[4] = system: mice; assay: Sub-threshold hypnotic dose sodium pentobarbital induced sleeping test; assay type: in vivo; settings: intraperitoneal, 30 min before sub-threshold sodium pentobarbital (22 mg/kg ip)
Experimental: N^6-substituted adenosine derivatives and/or N^6-substituted adenine derivatives potentiated sodium pentobarbital-induced sleep in mice
Name of Experiment: Sub-threshold hypnotic dose sodium pentobarbital induced sleeping test
Method of Experiment: Mice (n=7-10) were pretreated with test compound or vehicle, after 30 min, a maximal sub-threshold hypnotic dose of sodium pentobarbital (22 mg/kg) was given intraperitoneally (ip). (On some condition, the sub-threshold dosage of sodium pentobarbital should be optimized to the maximum dose, at which the rate of sleep onset of vehicle group is less than 10%). […] Following sodium pentobarbital injection, each mouse was observed 15 min for onset of sleep. The percentage of sleep onset was calculated as: (number of animals falling asleep/total number of animals)×100%.

[5] = molecular target: adenosine A2A receptor (Homo sapiens, UniProt P29274); settings: result in words; cited from earlier work
[6] = intraperitoneal, 1 mg/kg, 38 mg/kg sodium pentobarbital 30 min later
[7] = intraperitoneal, 5 mg/kg, 38 mg/kg sodium pentobarbital 30 min later

adenosine A2A receptor, sequence (P29274 whole entry): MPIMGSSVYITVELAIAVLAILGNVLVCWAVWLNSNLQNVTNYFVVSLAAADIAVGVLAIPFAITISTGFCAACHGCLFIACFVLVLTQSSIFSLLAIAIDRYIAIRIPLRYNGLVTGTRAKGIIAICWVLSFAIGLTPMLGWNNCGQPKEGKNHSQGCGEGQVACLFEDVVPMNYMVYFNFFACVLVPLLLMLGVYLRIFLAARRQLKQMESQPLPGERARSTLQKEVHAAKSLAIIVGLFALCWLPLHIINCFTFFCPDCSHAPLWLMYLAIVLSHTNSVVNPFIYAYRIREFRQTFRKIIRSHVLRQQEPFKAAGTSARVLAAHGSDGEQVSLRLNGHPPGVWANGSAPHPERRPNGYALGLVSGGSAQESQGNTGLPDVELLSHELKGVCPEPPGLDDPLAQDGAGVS

SMILES | Sleep rate (%) ([4]; 1 mg/kg) | Sleep prolonging rate (%) [1, 7] | Sleep rate (%) ([4]; 5 mg/kg) | further results
OC[C@H]1O[C@@H](n2cnc3c(NCc4ccc(O)cc4)ncnc32)[C@H](O)[C@@H]1O [Example 2, N^6-(p-hydroxybenzyl)-adenosine] | 63% |  |  | Sleep prolonging rate (%) ([1]; oral, 1 mg/kg, 38 mg/kg sodium pentobarbital 60 min later): 90%; sedative and hypnotic effects [2]: significant sedative and hypnotic effects; preventing PC12 cell apoptosis [3]: effective in preventing PC12 cell apoptosis; binding to adenosine A2A receptor [5]: binding to adenosine A2A receptor
COc1cc(CCNc2ncnc3c2ncn3[C@@H]2O[C@H](CO)[C@@H](O)[C@H]2O)ccc1O [Example 39, N^6-[(3-methoxy-4-hydroxyphenyl)-ethyl]-adenosine] | 88% |  |  | Sleep prolonging rate (%) [1, 6]: 13%
COc1ccc(CCNc2ncnc3c2ncn3[C@@H]2O[C@H](CO)[C@@H](O)[C@H]2O)cc1O [Example 40, N^6-[(3-hydroxy-4-methoxyphenyl)-ethyl]-adenosine] | 50% |  |  | Sleep prolonging rate (%) [1, 6]: 1%
OC[C@H]1O[C@@H](n2cnc3c(NCCc4c[nH]cn4)ncnc32)[C@H](O)[C@@H]1O [Example 43, N^6-[(1H-imidazole-4-yl)-ethyl]-adenosine] | 88% |  |  | Sleep prolonging rate (%) [1, 6]: 43%
OC[C@H]1O[C@@H](n2cnc3c(NCCc4c[nH]c5ccccc45)ncnc32)[C@H](O)[C@@H]1O [Example 44, N^6-[(1H-Indole-3-yl)-ethyl]-adenosine] |  | 147% | 86% | Sleep prolonging rate (%) ([1]; oral, 5 mg/kg, 38 mg/kg sodium pentobarbital 60 min later): 78%
O=C(O)[C@@H](Cc1ccccc1)Nc1ncnc2c1ncn2[C@@H]1O[C@H](CO)C(O)C1O (some centres unmarked) [Example 103, N-(6-adenosine)-(D)-phenylalanine] |  | 19% | 17% | 
O=C(O)[C@@H](Cc1ccc(O)cc1)Nc1ncnc2c1ncn2[C@@H]1O[C@H](CO)C(O)C1O (some centres unmarked) [Example 106, N-(6-adenosine)-(D)-tyrosine] |  | 82% | 17% | 
O=C(O)[C@@H](Cc1c[nH]c2ccccc12)Nc1ncnc2c1ncn2[C@@H]1O[C@H](CO)C(O)C1O (some centres unmarked) [Example 111, N-(6-adenosine)-(L)-tryptophan] |  | 69% | 14% | 
O=C(O)C(Cc1c[nH]c2ccc(O)cc12)Nc1ncnc2c1ncn2[C@@H]1O[C@H](CO)C(O)C1O (some centres unmarked) [Example 115, N-(6-adenosine)-5-hydroxy tryptophan] |  | 60% | 17% | 
O=C(O)[C@@H](CO)Nc1ncnc2c1ncn2[C@@H]1O[C@H](CO)C(O)C1O (some centres unmarked) [Example 124, N-(6-adenosine)-(L)-serine] |  |  |  | Sleep prolonging rate (%) ([1]; intraperitoneal, 5 mg/kg, 38 mg/kg sodium pentobarbital 30 min later, listed as N-(6-adenosine)-(L)-serine): 15%; Sleep rate (%) ([4]; 5 mg/kg, listed as N-(6-adenosine)-(L)-serine): 29%
O=C(O)[C@@H](CO)Nc1ncnc2c1ncn2[C@@H]1O[C@H](CO)C(O)C1O (some centres unmarked) [Example 125, N-(6-adenosine)-(D)-serine] |  |  |  | Sleep prolonging rate (%) ([1]; intraperitoneal, 5 mg/kg, 38 mg/kg sodium pentobarbital 30 min later, listed as N-(6-adenosine)-(D)-serine): 0%; Sleep rate (%) ([4]; 5 mg/kg, listed as N-(6-adenosine)-(D)-serine): 14%

Source: patent US10174033B2, “N6-substituted adenosine derivatives and N6-substituted adenine derivatives and uses thereof” (INSTITUTE OF MATERIA MEDICA, CHINESE ACADEMY OF MEDICAL …, priority 2009, dated 2019)
